In the NIST ThermoML archive (doi:10.1021/acs.jced.8b00684):

Test: xn = mol fraction of the nth substance listed
Details: 100 kPa, Liquid, Falling or rolling sphere viscometry

CCCCCCn1cc[n+](C)c1.F[B-](F)(F)F [1-hexyl-3-methylimidazolium tetrafluoroborate] + CC#N
viscosity [mPa·s]
Details | x1 = 0.104 | x1 = 0.2049 | x1 = 0.2948 | x1 = 0.4066 | x1 = 0.4616 | x1 = 0.5697 | x1 = 0.6626 | x1 = 0.8083 | x1 = 0.9044 | x1 = 1
293.15 K | 1.15 | 2.43 | 4.79 | 10.5 | 14.9 | 29.1 | 50 | 112 | 184 | 293
298.15 K | 1.05 | 2.26 | 4.32 | 9.04 | 12.7 | 24 | 40.3 | 86.4 | 139 | 216
303.15 K | 0.99 | 2.08 | 3.89 | 7.92 | 11 | 20.1 | 32.8 | 67.7 | 106 | 163
313.15 K | 0.87 | 1.79 | 3.21 | 6.19 | 8.36 | 14.6 | 22.8 | 43.9 | 65.9 | 96.7
323.15 K | 0.78 | 1.56 | 2.69 | 4.98 | 6.58 | 11 | 16.6 | 30.1 | 43.5 | 61.8
333.15 K | 0.71 | 1.37 | 2.3 | 4.1 | 5.32 | 8.58 | 12.5 | 21.7 | 30.4 | 41.9
343.15 K | 0.65 | 1.22 | 1.99 | 3.43 | 4.38 | 6.85 | 9.75 | 16.2 | 22.1 | 29.5

CCCCCCn1cc[n+](C)c1.F[B-](F)(F)F [1-hexyl-3-methylimidazolium tetrafluoroborate] + C[S+](C)[O-]
viscosity [mPa·s]
Details | 293.15 K | 298.15 K | 303.15 K | 313.15 K | 323.15 K | 333.15 K | 343.15 K | 353.15 K
x1 = 0.116 | 4.93 | 4.18 | 3.7 | 2.96 | 2.43 | 1.94 | 1.68 | 1.37
x1 = 0.2495 | 11 | 9.67 | 8.37 | 6.47 | 5.11 | 4.02 | 3.14 | 2.77
x1 = 0.2831 | 13.7 | 11.8 | 10.1 | 7.71 | 6.01 | 4.74 | 3.68 | 3.21
x1 = 0.3857 | 25 | 20.6 | 17.1 | 12.4 | 9.35 | 7.28 | 5.75 | 4.72
x1 = 0.5036 | 44.2 | 34.9 | 28.4 | 19.6 | 14.3 | 10.8 | 8.72 | 6.7
x1 = 0.5714 | 58.4 | 45.6 | 36.6 | 24.8 | 17.7 | 13.2 | 10.6 | 7.99
x1 = 0.6702 | 84.8 | 65.6 | 51.8 | 34.1 | 23.7 | 17.2 | 13.5 | 10.2
x1 = 0.7517 | 114 | 87.6 | 68.4 | 44 | 30 | 21.4 | 16.2 | 12.3
x1 = 0.7883 | 130 | 99.7 | 77.5 | 49.2 | 33.3 | 23.6 | 17.6 | 13.4
x1 = 0.8976 | 196 | 148 | 113 | 69.4 | 45.6 | 31.6 | 22.5 | 17.2
x1 = 1 | 293 | 216 | 163 | 96.7 | 61.8 | 41.9 | 29.5 | 21.7
